# Where “and” joins values, the source holds several entries; their conditions need not be identical. Equal values may be shown once.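 96-well plates; 48 h exposure; 5 concentrations. Endpoints by linear interpolation between flanking doses. Not reached: highest tested concentration assigned. The concentration for 50% growth inhibition is given as GI50. Definition used: TGI = concentration required for complete inhibition of growth.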 Where a SMILES comes first, the peptide text is derived from it.
# Experiments:
# Experiment in all cases: NCI tumour cell line growth inhibition, 48 h
# M14 melanoma = system: M14 melanoma
# RPMI-8226 leukemia = system: RPMI-8226 leukemia
# HT29 colon = system: HT29 colon
# SF-295 CNS = system: SF-295 CNS
# OVCAR-4 ovarian = system: OVCAR-4 ovarian
# NCI-H460 lung = system: NCI-H460 lung
# UACC-257 melanoma = system: UACC-257 melanoma
# HS 578T breast = system: HS 578T breast
# SW-620 colon = system: SW-620 colon
# 786-0 renal = system: 786-0 renal
SMILES,TGI (M14 melanoma) [µM],GI50 (RPMI-8226 leukemia) [µM],TGI (RPMI-8226 leukemia) [µM],GI50 (HT29 colon) [µM],TGI (HT29 colon),GI50 (SF-295 CNS) [µM],TGI (SF-295 CNS),GI50 (OVCAR-4 ovarian) [µM],TGI (OVCAR-4 ovarian),GI50 (NCI-H460 lung),TGI (NCI-H460 lung) [µM],GI50 (UACC-257 melanoma) [µM],TGI (UACC-257 melanoma) [µM],TGI (HS 578T breast) [µM],GI50 (SW-620 colon) [µM],TGI (SW-620 colon),TGI (786-0 renal) [µM],GI50 (M14 melanoma) [µM],GI50 (HS 578T breast) [µM],GI50 (786-0 renal) [µM]
CC(=O)O[C@H]1C(=O)O[C@@H]2C[C@H]3C(C)=CC(=O)[C@@H](O)[C@]3(C)[C@H]3[C@@]4(O)OC[C@]32[C@@H]1[C@@H](C)[C@H]4O,0.0838,< 0.0142,0.0989,0.0374,1.38 µM and 1.26 µM,0.034,0.291 µM and 0.206 µM,0.0394,0.758 µM and 0.409 µM,0.0136 µM and 0.0427 µM,0.187,0.0322,0.137,0.19,0.033,0.445 µM and 0.653 µM,0.14,,,
C=C1C(=O)O[C@H]2[C@H]1CC/C(COC(=O)CCCCCCCCC(=O)OC/C1=C/CC[C@@]3(C)O[C@H]3[C@H]3OC(=O)C(=C)[C@@H]3CC1)=C\CC[C@@]1(C)O[C@@H]21,3.41,2.92,8.29,2.08,4.12 µM,2.56,8.09 µM,2.46,7.55 µM,2.14 µM,4.4,2.25,4.41,9.88,1.87,3.87 µM,3.41,1.63,2.91,1.75
NC(CNO)C(=O)O (stereo unspecified),> 100,,> 100,,> 100 µM,,> 100 µM,,> 100 µM,,> 100,,> 100,> 100,,> 100 µM,> 100,,,
O=C(Nc1ccccc1)Nc1cccc(-n2cc(-c3ccncc3)c(-c3ccc(O)c(Cl)c3)n2)c1,9.47,2.35,6.13,2.27,4.45 µM,2.1,4.73 µM,3.45,25.7 µM,3.24 µM,17.1,2.12,4.91,> 100,3.67,38.4 µM,11.7,3.1,3.24,3.24
c1cc(OCCN2CCCCCC2)ccc1CNc1ccc2nc(CCC3CCCCC3)[nH]c2c1,3.32,1.5,3.79,1.3,3.49 µM,1.94,3.82 µM,3.2,13.8 µM,2.06 µM,4.64,1.94,4.12,4.94,1.87,4 µM,3.29,1.72,1.7,1.6
Cn1ncc2c(/N=C/c3cccs3)[nH]c(=S)nc21,> 100,31.6,> 100,52.3,> 100 µM,41.1,> 83.3 µM,> 59,> 100 µM,31 µM,> 100,> 65.4,> 100,77,31.5,> 100 µM,> 100,45.7,24.9,60.1
COc1ccc(/C=C2\CN(Cc3cn(CCCNc4ccnc5cc(Cl)ccc45)nn3)C/C(=C\c3ccc(OC)c(OC)c3)C2=O)cc1OC,9.68,1.46,5.65,0.663,2.38 µM,2.08,4.1 µM,1.11,18.1 µM,0.806 µM,2.12,2.24,12,9.97,0.455,1.75 µM,4.39,2.59,1.99,1.95
CN[C@]12CC3(C=CC(=O)C=C3)O[C@@]1(Cc1ccc(OC)cc1)N(C)C(=O)N2,7.6,1.63,3.32,1.63,6.28 µM,3.74,13.6 µM,3.89,19.1 µM,3.44 µM,13.7,3.52,19.8,> 100,2.1,6.99 µM,4.12,1.99,4.62,2.03
CCN(CC)CCOc1ccc(/C(=C(\C)Cc2ccc(OC)cc2)c2ccc(OC(=O)NCc3ccccc3)cc2)cc1,3.26,2.13,4.4,1.89,4.29 µM,1.75,3.3 µM,2.47,7.51 µM,1.84 µM,3.37,2.04,4.2,6.16,1.91,3.59 µM,3.04,1.7,2.36,1.64
CC(C)CC(NC(=O)C(CC(C)C)NC(=O)C(Cc1cnc[nH]1)NC(=O)C(C)NC(=O)C(NC(=O)C(C)NC(=O)C(Cc1c[nH]c2ccccc12)NC(=O)C(CCC(=O)O)NC(=O)C(N)Cc1ccccc1)C(C)C)C(N)=O (stereo unspecified) (H-FEWAVAHLL-NH2; configuration not given here),> 100,> 100,> 100,> 100,> 100 µM,> 100,> 100 µM,> 100,> 100 µM,> 100 µM,> 100,> 100,> 100,> 12.5,> 100,> 100 µM,> 100,> 100,,> 100
COc1ccc(/C(C)=C(\c2ccc(Cl)cc2)c2ccc(OCCN3CCCC3)cc2)cc1F,3.09,3.57,9.23,0.724,3.47 µM,2.92,6.25 µM,3.21,6.62 µM,2.1 µM,5.29,0.872,3.2,9.55,2.5,5.68 µM,7.02,0.882,3.77,3.39
C/C(CC(=O)NNc1ccc([N+](=O)[O-])cc1)=N\Nc1ccc([N+](=O)[O-])cc1,18.3,7.91,> 100,7.66,> 100 µM,2.96,18.4 µM,5.92,> 100 µM,4.14 µM,> 100,39.6,> 100,> 100,3.84,> 100 µM,> 100,2.11,17.4,10.4
O=C(O)C1NCCc2c1[nH]c1ccccc21 (stereo unspecified),> 100,,> 10,> 100,> 100 µM,,> 100 µM,> 100,> 100 µM,,> 100,> 100,> 100,> 10,> 100,> 100 µM,> 100,> 100,,> 100
CCOC(=O)c1c(-c2ccccc2)[n+](=O)c2ccc(Cl)cc2n1[O-],21.7,2.44,6.62,11,23 µM,4.87,19.1 µM,4.25,22.9 µM,5.36 µM,17.9,4.06,16.6,31.8,5.59,17.7 µM,19.9,10.1,4.63,6.98
COc1ccc(-c2nn(-c3cccc(NC(=O)Nc4ccc(Cl)c(C(F)(F)F)c4)c3)cc2-c2ccncc2)cc1Cl,4.44,1.43,5.29,3.18,13.1 µM,2.31,7.23 µM,2.9,9.8 µM,1.99 µM,8.99,2.44,7.42,9.3,3.66,63.9 µM,4.49,1.9,2.27,1.91
O=C(Nc1nccs1)c1cc2c(cc1Cl)Sc1nccn1S2(=O)=O,34.6,9.29,23.6,19.8,46.7 µM,18.3,34.5 µM,16.4,38.6 µM,,29.5,13.9,26.9,91.7,16.8,42 µM,29.4,17.8,28.5,16
COc1ccc2c(c1)CCc1c(-c3noc4c3CCc3cc(OC)ccc3-4)noc1-2,> 100,,> 100,,> 100 µM,,> 100 µM,,> 100 µM,,> 100,,> 100,> 100,,> 100 µM,> 100,,,
ClCc1ccc(-c2ccc(Cn3cnc4c(Cl)nc(Cl)nc43)cc2)cc1,32.3,2.33,5.77,1.72,3.31 µM,2.69,6.5 µM,3.39,13.3 µM,3 µM,10.6,1.5,3.64,11.1,1.83,3.41 µM,19.6,13.4,3.14,6.43

# — PubChem BioAssay (NCI)
